Laboratory results as given in patent US8710045B2, “Agents for preventing and treating disorders involving modulation of the ryanodine receptors” (The Trustees of Columbia University in the City of New York, priority 2004, dated 2014).

Columns and labels:
[1] = Plasma creatine kinase (CPK) activity in chronically exercised mice; format: in vivo, mouse
Description: Calpain and Creatine Kinase Assays: Tissue calpain activities were measured using a calpain activity assay kit (Calbiochem, San Diego, Calif.) (FIG. 42B). This assay is based on the degradation of the fluorescent peptide substrate Suc-LLVY-AMC (Calbiochem). Muscle homogenates were diluted to a final concentration of 600 μg/ml and the calpain activity in the homogenate was determined as per manufactures instructions. Plasma creatine kinase (CK) activity was assayed using the regent kit from Pointe Scientific, Inc. (Canton, Mich.) (FIG. 42A). Plasma samples (duplicates, 5 μl each) were added to 200 μl of CK reagent and the change in absorbance at 340 nm was recorded over 4 minutes using a plate reader. The average absorbance change per minute was used to determine the CPK levels as per manufacturer's instructions.
Reduced calpain activation in muscle tissue and reduced muscle tissue damage due to calstabin1 rebinding: One possible mechanism by which calcium released by leaky RyR1 channels impairs exercise performance is the activation of a member of the calpain family of Ca^2+-dependent neutral proteases, which are known to be responsible for muscle damage in a number of pathophysiological states. […] Calpain activity in muscle homogenates was assessed by means of the degradation of the synthetic calpain substrate Suc-LLVY-AMC, which fluoresces upon cleavage by calpain.

[2] = biological target: T1, RyR1 (Mus musculus, UniProt E9PZQ0); assay: RyR1 single channel recording in planar lipid bilayers from exercised mice; format: in vivo; conditions: 90 nM [Ca2+]cis
T1 construct: RyR1 was immunoprecipitated from soleus muscle homogenates of mice following 21 days of exercise; from tissue; host or cells: mouse hind-limb skeletal muscle (soleus, EDL; SR microsomes for bilayer recording)
T1 sequence (E9PZQ0 whole entry): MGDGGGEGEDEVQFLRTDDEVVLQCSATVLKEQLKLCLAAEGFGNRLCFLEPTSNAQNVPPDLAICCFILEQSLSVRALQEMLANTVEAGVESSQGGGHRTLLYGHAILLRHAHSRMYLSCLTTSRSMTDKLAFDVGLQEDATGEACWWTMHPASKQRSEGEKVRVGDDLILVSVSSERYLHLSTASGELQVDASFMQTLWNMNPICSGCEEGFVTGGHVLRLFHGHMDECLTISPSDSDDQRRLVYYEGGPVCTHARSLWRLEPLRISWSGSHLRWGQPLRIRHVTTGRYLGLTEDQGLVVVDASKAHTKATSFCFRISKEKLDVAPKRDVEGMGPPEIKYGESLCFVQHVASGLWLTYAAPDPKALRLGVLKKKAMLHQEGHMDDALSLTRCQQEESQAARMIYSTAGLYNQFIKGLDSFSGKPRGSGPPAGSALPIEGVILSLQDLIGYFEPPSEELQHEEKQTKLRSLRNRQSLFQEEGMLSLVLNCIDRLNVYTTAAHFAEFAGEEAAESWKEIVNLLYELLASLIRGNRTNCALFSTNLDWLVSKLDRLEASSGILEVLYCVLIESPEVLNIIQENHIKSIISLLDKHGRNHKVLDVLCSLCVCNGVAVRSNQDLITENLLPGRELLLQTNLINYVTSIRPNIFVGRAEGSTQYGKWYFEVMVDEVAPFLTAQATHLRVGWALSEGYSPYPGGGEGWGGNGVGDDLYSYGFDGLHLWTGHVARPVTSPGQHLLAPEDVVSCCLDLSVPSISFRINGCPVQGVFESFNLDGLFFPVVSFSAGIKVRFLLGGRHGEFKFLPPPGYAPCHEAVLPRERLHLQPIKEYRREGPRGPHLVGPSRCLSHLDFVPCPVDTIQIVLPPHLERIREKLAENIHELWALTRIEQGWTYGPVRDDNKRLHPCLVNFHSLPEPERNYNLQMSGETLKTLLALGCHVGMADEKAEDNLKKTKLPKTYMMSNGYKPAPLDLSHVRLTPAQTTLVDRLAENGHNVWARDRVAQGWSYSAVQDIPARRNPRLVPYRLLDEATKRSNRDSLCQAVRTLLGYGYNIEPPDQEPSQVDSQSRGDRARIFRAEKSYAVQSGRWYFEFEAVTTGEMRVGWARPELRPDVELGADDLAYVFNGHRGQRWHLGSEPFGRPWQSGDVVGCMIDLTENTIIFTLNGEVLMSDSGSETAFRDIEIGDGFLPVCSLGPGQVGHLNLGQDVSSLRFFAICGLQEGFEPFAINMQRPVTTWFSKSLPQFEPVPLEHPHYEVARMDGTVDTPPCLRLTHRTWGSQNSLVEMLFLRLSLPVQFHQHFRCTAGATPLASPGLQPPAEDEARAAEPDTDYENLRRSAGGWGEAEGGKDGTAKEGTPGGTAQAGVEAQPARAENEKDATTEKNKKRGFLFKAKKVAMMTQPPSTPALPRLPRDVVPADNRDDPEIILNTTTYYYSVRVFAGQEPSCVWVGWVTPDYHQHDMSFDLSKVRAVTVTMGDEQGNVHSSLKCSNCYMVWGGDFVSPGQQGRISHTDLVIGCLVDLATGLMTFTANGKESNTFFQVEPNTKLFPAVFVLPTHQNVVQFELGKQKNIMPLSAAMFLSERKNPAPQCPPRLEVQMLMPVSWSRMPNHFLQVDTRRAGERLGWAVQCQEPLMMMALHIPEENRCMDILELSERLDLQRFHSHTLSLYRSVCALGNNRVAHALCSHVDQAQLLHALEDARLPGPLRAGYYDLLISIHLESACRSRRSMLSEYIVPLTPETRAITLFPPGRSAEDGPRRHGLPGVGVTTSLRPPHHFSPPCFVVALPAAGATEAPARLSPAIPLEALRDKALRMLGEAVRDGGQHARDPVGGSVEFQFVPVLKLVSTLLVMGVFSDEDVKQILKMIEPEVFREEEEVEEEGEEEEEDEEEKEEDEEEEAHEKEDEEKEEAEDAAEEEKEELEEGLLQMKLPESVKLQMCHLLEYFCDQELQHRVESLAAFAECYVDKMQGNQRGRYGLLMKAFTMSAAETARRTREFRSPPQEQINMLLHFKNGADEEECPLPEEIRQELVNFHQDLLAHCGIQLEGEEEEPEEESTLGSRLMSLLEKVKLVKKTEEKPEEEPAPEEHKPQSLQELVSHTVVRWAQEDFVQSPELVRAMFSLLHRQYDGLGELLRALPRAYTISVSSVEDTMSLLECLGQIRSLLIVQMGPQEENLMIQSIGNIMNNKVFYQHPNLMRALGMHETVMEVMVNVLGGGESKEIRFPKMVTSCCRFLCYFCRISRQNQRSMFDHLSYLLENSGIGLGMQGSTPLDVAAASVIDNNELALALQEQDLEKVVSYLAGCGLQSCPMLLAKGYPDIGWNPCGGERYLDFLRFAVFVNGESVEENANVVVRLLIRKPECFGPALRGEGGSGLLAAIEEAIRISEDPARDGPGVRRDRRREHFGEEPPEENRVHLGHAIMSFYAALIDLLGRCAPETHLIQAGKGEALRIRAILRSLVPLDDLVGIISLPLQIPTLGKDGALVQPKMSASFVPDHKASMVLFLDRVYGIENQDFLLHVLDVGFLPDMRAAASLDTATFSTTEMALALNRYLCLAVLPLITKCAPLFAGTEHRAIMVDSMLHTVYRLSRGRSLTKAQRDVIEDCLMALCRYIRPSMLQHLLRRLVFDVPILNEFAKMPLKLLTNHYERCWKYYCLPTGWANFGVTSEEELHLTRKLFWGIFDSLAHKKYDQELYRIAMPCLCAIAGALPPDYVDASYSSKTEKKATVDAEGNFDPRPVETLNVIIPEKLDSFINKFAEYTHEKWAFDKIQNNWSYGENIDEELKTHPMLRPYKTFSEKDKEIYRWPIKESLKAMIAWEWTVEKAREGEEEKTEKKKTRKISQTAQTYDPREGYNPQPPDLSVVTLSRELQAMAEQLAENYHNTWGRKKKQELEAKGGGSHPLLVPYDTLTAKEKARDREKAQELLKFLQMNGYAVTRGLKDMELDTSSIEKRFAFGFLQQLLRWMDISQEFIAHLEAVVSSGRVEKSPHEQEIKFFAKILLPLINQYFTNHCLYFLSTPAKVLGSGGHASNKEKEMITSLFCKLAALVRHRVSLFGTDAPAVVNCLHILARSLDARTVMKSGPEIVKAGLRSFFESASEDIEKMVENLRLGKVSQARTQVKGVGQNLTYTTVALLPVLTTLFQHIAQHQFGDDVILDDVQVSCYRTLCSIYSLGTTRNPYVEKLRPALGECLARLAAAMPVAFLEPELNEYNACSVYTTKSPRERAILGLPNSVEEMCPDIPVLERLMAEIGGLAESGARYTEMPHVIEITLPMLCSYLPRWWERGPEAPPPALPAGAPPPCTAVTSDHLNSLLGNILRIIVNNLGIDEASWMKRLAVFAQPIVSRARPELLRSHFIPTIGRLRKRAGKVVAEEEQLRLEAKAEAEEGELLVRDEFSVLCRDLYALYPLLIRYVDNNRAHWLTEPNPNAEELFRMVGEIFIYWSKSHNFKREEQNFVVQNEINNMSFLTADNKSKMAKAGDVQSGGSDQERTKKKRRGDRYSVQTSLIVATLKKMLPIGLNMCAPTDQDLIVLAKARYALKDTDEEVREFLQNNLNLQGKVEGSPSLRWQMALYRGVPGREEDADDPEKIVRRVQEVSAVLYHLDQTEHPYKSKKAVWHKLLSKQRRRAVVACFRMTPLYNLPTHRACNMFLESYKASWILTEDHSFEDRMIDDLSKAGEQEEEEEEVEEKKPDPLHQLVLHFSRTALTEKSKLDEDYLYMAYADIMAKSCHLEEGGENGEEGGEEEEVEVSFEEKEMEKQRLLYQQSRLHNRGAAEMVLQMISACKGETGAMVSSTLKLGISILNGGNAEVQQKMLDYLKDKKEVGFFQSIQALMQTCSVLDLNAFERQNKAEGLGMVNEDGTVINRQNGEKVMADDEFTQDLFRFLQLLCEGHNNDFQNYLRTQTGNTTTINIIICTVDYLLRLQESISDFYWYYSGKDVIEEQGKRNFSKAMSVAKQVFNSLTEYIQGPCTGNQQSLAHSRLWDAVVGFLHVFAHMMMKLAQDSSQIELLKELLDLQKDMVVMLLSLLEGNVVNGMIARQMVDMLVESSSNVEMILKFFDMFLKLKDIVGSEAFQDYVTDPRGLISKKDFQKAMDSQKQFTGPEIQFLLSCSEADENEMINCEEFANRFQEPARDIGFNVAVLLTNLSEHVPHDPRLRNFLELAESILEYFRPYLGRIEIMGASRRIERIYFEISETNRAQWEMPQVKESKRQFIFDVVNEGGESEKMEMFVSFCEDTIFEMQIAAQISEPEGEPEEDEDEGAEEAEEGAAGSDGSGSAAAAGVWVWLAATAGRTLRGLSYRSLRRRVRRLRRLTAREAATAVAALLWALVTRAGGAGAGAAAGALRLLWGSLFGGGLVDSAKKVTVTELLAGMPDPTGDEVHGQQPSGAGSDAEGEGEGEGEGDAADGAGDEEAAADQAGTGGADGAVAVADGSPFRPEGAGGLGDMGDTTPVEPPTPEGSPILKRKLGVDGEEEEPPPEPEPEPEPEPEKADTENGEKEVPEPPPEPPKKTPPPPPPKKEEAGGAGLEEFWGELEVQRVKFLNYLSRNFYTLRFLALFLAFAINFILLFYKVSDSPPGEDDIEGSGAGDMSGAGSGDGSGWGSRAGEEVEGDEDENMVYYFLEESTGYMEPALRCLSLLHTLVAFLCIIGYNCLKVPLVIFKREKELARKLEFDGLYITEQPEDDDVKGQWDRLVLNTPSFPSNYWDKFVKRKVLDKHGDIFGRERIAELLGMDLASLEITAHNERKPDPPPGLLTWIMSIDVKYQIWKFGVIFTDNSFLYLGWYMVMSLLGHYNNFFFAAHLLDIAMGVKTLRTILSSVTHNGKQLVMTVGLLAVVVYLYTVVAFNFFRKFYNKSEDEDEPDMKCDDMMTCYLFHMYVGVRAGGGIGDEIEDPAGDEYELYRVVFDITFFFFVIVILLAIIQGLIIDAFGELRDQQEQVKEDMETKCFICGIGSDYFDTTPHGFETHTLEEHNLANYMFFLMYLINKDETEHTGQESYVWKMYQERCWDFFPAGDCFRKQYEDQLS
T1 sequence (P26883 2-108 partner limits assumed): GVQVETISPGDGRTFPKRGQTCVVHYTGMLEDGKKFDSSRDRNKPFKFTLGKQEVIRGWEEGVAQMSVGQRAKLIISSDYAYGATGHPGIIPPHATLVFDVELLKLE
Description: RyR1 channels were reconstituted by spontaneous fusion of microsomes into the planar lipid bilayer (a mixture of phosphatidylethanolamine and phosphatidylserine in a 3:1 ratio, Avanti Polar Lipids). Planar lipid bilayers were formed across a 200 μm aperture in a polysulfonate cup (Warner Instruments, Inc.), which separated two bathing solutions (1 mM EGTA, 250/125 mM HEPES/Tris, 50 mM KCl, 0.5 mM CaCl2, pH 7.35 as cis solution and 53 mM Ba(OH)2, 50 mM KCl, 250 mM HEPES, pH 7.35 as trans solution). After incorporation, RyR1 channel activity was recorded continuously for at least 10 minutes. The concentration of free Ca^2+ in the cis chamber was calculated with WinMaxC program (version 2.50) (Bers, Patton et al. 1994). Single channel currents were recorded at 0 mV using the Axopatch 200A patch-clamp amplifier (Axon Instruments, USA) in gap-free mode, filtered at 1 kHz, and digitized at 10 kHz. Data acquisition was performed using Digidata 1322A and Axoscope 9 software (Axon Instruments, USA). The recordings were analyzed using Clampfit 10.1 (Molecular Devices, USA) and Origin software (ver. 6.0, Microcal Software, Inc., USA).
Chronic exercise results in leaky RyR1 Channels which can be reversed by calstabin1 rebinding: A critical issue is whether the biochemical changes in the RyR1 macromolecular complex identified during exercise result in changes in RyR1 channel activity. […]

[3] = biological target: T1, RyR1; assay: RyR1 immunoprecipitation from soleus muscle after 21 days of exercise, calstabin1 western blot; format: in vivo; conditions: subcutaneous mini-osmotic pump
Description: RyR1 was immunoprecipitated from soleus muscle homogenates of mice following 21 days of exercise with or without simultaneous subcutaneous mini-osmotic pump treatment with S36 and then western blotted back for RyR1, phospho-epitope specific RyR1-pS2844, and calstabin1 bound to the RyR1 macromolecular complex.
The samples were incubated with protein A Sepharose beads (Amersham Pharmacia) at 4° C. for 1 h, after which the beads were washed three times with buffer. Proteins were separated on SDS PAGE gels (6% for RyR2 and 15% for calstabin2) and transferred onto nitrocellulose membranes overnight (SemiDry transfer blot, Bio-Rad). After incubation with 5% nonfat milk to prevent non-specific antibody binding and a wash in Tris-buffered saline with 0.1% Tween-20, membranes were incubated for 1-2 h at room temperature with primary antibodies anti-calstabin (1:1,000), anti-RyR (5029; 1:5,000), or anti-phospho-RyR2-pSer2809 (1:5,000), which detects PKA-phosphorylated mouse RyR1-pSer2844 and RyR2-pSer2808. After three washes, membranes were incubated with horseradish peroxidase-labeled anti-rabbit IgG (1:5,000, Transduction Laboratories, Lexington, Ky.), and developed with an enhanced chemiluminescent detection system (Amersham Pharmacia). Band densities were quantified by using QUANTITY ONE software (Bio-Rad).

## COc1ccc2c(c1)CN(C)CCS2 [S107]
[1]
  plasma CPK activity levels: reduced close to the levels observed in sedentary controls
[2]
  duration of the channel dwell times: Neither chronic exercise nor S107 had any effect
[2]; Ex+S107 vs Ex+veh, p<0.005
  RyR1 open probability: significant decrease

## COc1ccc2c(c1)CN(C(=O)C(=O)O)CCS2 [S36]
[3]
  calstabin1 bound to RyR1: allows RyR1 to rebind calstabin1
